This data set can be described thus: Cytotoxicity against human THP1 cells upto 50 uM treated 3 times per week for 14 days by MTT assay. Format: cell-based. Conditions: thp-1, 336 h. In general terms: Tetrazolium assays rely on reduction of a dye to a coloured formazan, in cell work by metabolically active cells.

Consider `Cc1ncc([N+](=O)[O-])n1CCn1cc(COc2ccc(C(C)(C)C)cc2)nn1`, for which the Activity entry is reported as “Non-toxic”.
`Cc1ncc([N+](=O)[O-])n1CCn1cc(CNc2cccc(Cl)c2)nn1`: the Activity entry is listed as “Non-toxic”.
For the compound `Cc1ncc([N+](=O)[O-])n1CCn1cc(CNc2ccccc2Cl)nn1`, the Activity entry is “Non-toxic”.
Regarding `Cc1ncc([N+](=O)[O-])n1CCn1cc(CNc2ccc(F)cc2)nn1`, the Activity entry was “Non-toxic”.
For `Cc1cccc(OCc2cn(CCn3c([N+](=O)[O-])cnc3C)nn2)c1C`, the Activity entry is reported as “Non-toxic”.
`Cc1ncc([N+](=O)[O-])n1CCn1cc(COc2ccc(Cl)cc2Cl)nn1`: the Activity entry is recorded as “Non-toxic”.
Regarding `Cc1ncc([N+](=O)[O-])n1CCn1cc(COc2cccc3ccccc23)nn1`, the Activity entry is listed as “Non-toxic”.
In the case of `Cc1ncc([N+](=O)[O-])n1CCn1cc(COCc2ccccc2)nn1`, the Activity entry is reported as “Non-toxic”.
Next, `Cc1ncc([N+](=O)[O-])n1CCn1cc(CNc2ccc(Br)cc2)nn1`: “Non-toxic”; `Cc1ncc([N+](=O)[O-])n1CCn1cc(CNc2ccccc2)nn1`: “Non-toxic”; `Cc1ccccc1NCc1cn(CCn2c([N+](=O)[O-])cnc2C)nn1`: “Non-toxic”.
Turning to `Cc1ncc([N+](=O)[O-])n1CCn1cc([Si](C)(C)C)nn1`, the Activity entry is given as “Non-toxic”.
On to `Cc1ncc([N+](=O)[O-])n1CCn1cc(COc2ccc(C(C)C)cc2)nn1`, for which the Activity entry is “Non-toxic”.
Take `CCCc1cn(CCn2c([N+](=O)[O-])cnc2C)nn1`: the Activity entry is listed as “Non-toxic”.
The same measure for `Cc1ncc([N+](=O)[O-])n1CCn1cc(CNc2ccccc2F)nn1`: “Non-toxic”; for `Cc1ncc([N+](=O)[O-])n1CCn1cc(CNc2cc(Cl)c(Cl)cc2Cl)nn1`: “Non-toxic”; for `Cc1ncc([N+](=O)[O-])n1CCn1cc(CNc2ccccn2)nn1`: “Non-toxic”.
Next, `Cc1ncc([N+](=O)[O-])n1CCn1cc(COc2c(C(C)(C)C)cc(C(C)(C)C)cc2C(C)(C)C)nn1`: “Non-toxic”.

The record behind these values is ChEMBL document CHEMBL3792373, “Anti-methicillin resistant Staphylococcus aureus activity, synergism with oxacillin and molecular docking studies of metronidazole-triazole hybrids” (Eur J Med Chem, 2016).
